We go through 15 molecules from patent US6630469B2, “5-HT7 receptor antagonists” (Bristol-Myers Squibb Company, priority 2000, dated 2003).

Structures are written as SMILES.

T1 sequence (P34969 whole entry): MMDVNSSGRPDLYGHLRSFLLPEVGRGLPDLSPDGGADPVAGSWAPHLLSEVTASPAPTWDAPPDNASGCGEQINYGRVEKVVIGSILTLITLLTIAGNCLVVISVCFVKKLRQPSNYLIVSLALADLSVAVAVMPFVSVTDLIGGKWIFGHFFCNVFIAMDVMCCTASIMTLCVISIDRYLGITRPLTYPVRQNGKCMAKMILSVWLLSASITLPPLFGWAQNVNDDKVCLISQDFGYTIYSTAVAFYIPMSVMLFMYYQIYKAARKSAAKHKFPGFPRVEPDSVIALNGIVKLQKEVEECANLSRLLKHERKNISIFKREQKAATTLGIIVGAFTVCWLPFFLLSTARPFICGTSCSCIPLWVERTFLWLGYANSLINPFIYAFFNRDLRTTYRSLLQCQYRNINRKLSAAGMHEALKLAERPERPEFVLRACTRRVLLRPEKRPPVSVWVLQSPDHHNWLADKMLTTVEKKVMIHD

The test has as its target T1, human 5-HT7 receptor (Homo sapiens, UniProt P34969).
T1 construct: expressed in transfected cells; host or cells: CHO cells
The experiment in a line: 5-HT7 Receptor Binding Assay. As to conditions: membranes of CHO cells expressing human 5-HT7 receptor; 1 nM 3H-5-carboxamidotryptamine; 25° C., 60 minutes. The procedure:
5-HT7 Receptor Binding Assay
Membranes are prepared for binding using the human 5-HT7 receptor expressed in CHO cells. Cells are collected and ruptured using a dounce homogenizer. The cells are spun at 18000× g for 10 minutes and the pellet is resuspended in assay buffer, frozen in liquid nitrogen and kept at −80° C. until the day of the assay.
A total of 30 ug protein is used per well. The assay is carried out in 96-deep-well plates. The assay buffer is 50 mM HEPES. The membrane preparation is incubated at 25° C. for 60 minutes with 0.1 nM to 1000 nM test compound and 1 nM ^3H-5-carboxamidotryptamine. 10 uM serotonin is used as blocking agent to determine non-specific binding. The reaction is terminated by the addition of 1 ml of ice cold 5OmM HEPES buffer and rapid filtration through a Brandel Cell Harvester using Whatman GF/B filters. The filter pads are counted in an LKB Trilux liquid scintillation counter. IC50 values are determined using non-linear regression by Exel-fit.
The molecule `C[C@H](Nc1nc(N)nc(NCCNc2ccccc2)n1)c1cccc2ccccc12` [Compound 38, N^2-[(1S)-1-(1-Napthalenyl)ethyl]-N^4-[2-(phenylamino)ethyl]-1,3,5-triazine-2,4,6-triamine] had a concentration for half-maximal inhibition (IC50) of 0.101 to 0.2 µM.

In the case of `C[C@H](Nc1nc(N)nc(NCCc2ccc(Br)cc2)n1)c1ccc([N+](=O)[O-])cc1` [Compound 39, N^2-[2-(4-Bromophenyl)ethyl]-N^4-[(1S)-1-(4-nitrophenyl)ethyl]-1,3,5-triazine-2,4,6-triamine], the IC50 was in the range of 0.101 to 0.2 µM.

Molecule `CC[C@H](Nc1nc(N)nc(NCCOc2ccccc2)n1)c1ccccc1` [Compound 40, N^2-[2-(Phenoxy)ethyl]-N^4-[(1S)-1-phenylpropyl]-1,3,5-triazine-2,4,6-triamine] gave a half-maximal inhibitory concentration (IC50) of 0.051 to 0.1 µM.

The molecule `C[C@H](Nc1nc(N)nc(NCCOc2ccccc2)n1)c1ccccc1` [Compound 41, N^2-[2-(Phenoxy)ethyl]-N^4-[(1S)-1-phenylethyl]-1,3,5-triazine-2,4,6-triamine] returned an IC50 of 0.051 to 0.1 µM.

In turn, `C[C@H](Nc1nc(N)nc(NCCOc2ccccc2)n1)c1cccc2ccccc12` [Compound 42, N^2-[(1S)-1-(1-Napthyl)ethyl]-N^4-[2-(phenoxy)ethyl]-1,3,5-triazine-2,4,6-triamine] gave an IC50 of 0.051 to 0.1 µM.

The molecule `C[C@H](Nc1nc(N)nc(NCCOc2ccc(F)cc2)n1)c1ccc([N+](=O)[O-])cc1` [Compound 45, N^2-[2-(4-Fluorophenoxy)ethyl]-N^4-[(1S)-1-(4-nitrophenyl)ethyl]-1,3,5-triazine-2,4,6-triamine] returned an IC50 of 0.051 to 0.1 µM.

The molecule `C[C@H](Nc1nc(N)nc(NCCOc2ccc(F)c(F)c2)n1)c1ccc([N+](=O)[O-])cc1` [Compound 47, N^2-[2-(3,4-Difluorophenoxy)ethyl]-N^4-[(1S)-1-(4-nitrophenyl)ethyl]-1,3,5-triazine-2,4,6-triamine] came in with an IC50 of 0.051 to 0.1 µM.

Molecule `C[C@H](Nc1nc(N)nc(NCCc2ccccc2F)n1)c1ccccc1` [Compound 48, N^2-[2-(2-Fluorophenyl)ethyl]-N^4-[(1S)-1-phenylethyl]-1,3,5-triazine-2,4,6-triamine] returned an IC50 of 0.051 to 0.1 µM.

In turn, `CC[C@H](Nc1nc(N)nc(NCCc2ccc(C)cc2)n1)c1ccccc1` [Compound 49, N^2-[2-(4-Methylphenyl)ethyl]-N^4-[(1S)-1-phenylpropyl]-1,3,5-triazine-2,4,6-triamine] came in with an IC50 of 0.051 to 0.1 µM.

For `C[C@H](Nc1nc(N)nc(NCCc2ccc(Cl)cc2)n1)c1ccccc1` [Compound 50, N^2-[2-(4-Chlorophenyl)ethyl]-N^4-[(1S)-1-phenylethyl]-1,3,5-triazine-2,4,6-triamine], the IC50 lay in the range of 0.051 to 0.1 µM.

Molecule `CC[C@H](Nc1nc(N)nc(NCCc2ccccc2F)n1)c1ccccc1` [Compound 51, N^2-[2-(2-Fluorophenyl)ethyl]-N^4-[(1S)-1-phenylpropyl]-1,3,5-triazine-2,4,6-triamine] had an IC50 of 0.051 to 0.1 µM.

For the molecule `CC[C@H](Nc1nc(N)nc(NCCc2cccc(OC)c2)n1)c1ccccc1` [Compound 52, N^2-[2-(3-Methoxyphenyl)ethyl]-N^4-[(1S)-1-phenylpropyl]-1,3,5-triazine-2,4,6-triamine], the IC50 lay in the range of 0.051 to 0.1 µM.

In the case of `C[C@H](Nc1nc(N)nc(NCCc2cccc(C(F)(F)F)c2)n1)c1ccccc1` [Compound 53, N^2-[(1S)-1-Phenylethyl]-N^4-{2-[3-(trifluoromethyl)phenyl]ethyl}-1,3,5-triazine-2,4,6-triamine], the IC50 was in the range of 0.051 to 0.1 µM.

Take `COc1cccc(CCNc2nc(N)nc(N[C@@H](C)c3ccccc3)n2)c1` [Compound 54, N^2-[2-(3-Methoxyphenyl)ethyl]-N^4-[(1S)-1-phenylethyl]-1,3,5-triazine-2,4,6-triamine]: the IC50 fell in the range of 0.051 to 0.1 µM.

`C[C@H](Nc1nc(N)nc(NCCc2cccc(C#N)c2)n1)c1ccccc1` [Compound 55, N^2-[2-(3-Cyanophenyl)ethyl]-N^4-[(1S)-1-phenylethyl]-1,3,5-triazine-2,4,6-triamine] yielded an IC50 of 0.051 to 0.1 µM.

In general, IC50 refers to the concentration needed to halve the response being measured. Low values mean greater potency, high ones weaker potency.
